# US4110327A, “2,3 Diketo-piperazinocarbonylamino alkanoic acids and derivatives” (Toyama Chemical Co., Ltd., priority 1974, dated 1978)
# Key:
# Test in all cases: MIC against standard strain, plate method
# Type in all cases: cell-based
# Proteus vulgaris 3027 = details: Proteus vulgaris 3027, standard strain; unit assumed
# Description: (§1) The minimum inhibitory concentrations (MIC) was determined by the plate method disclosed in "Chemotherapy" (Japan), Vol. 16, (1968), pages 98 - 99. The culture medium used was a Heart infusion agar (pH 7.4). The number of the cells per plate used in the inoculum as 10^4 (10^6 cells/ml).
# Escherichia coli NIHJ = details: unit assumed
# Description: as §1
# [1] = tested on: Pseudomonas aeruginosa I.F.O.; details: unit assumed
# Description: as §1
# [2] = tested on: Staphylococcus aureus 209p; details: unit assumed
# Description: as §1
# Klebsiella pneumoniae = details: unit assumed
# Description: as §1
Compound,MIC (Proteus vulgaris 3027) [µg/mL],MIC (Escherichia coli NIHJ) [µg/mL],MIC [1] [µg/mL],MIC [2] [µg/mL],MIC (Klebsiella pneumoniae) [µg/mL]
Cc1ccc(C(=O)N2CCN(C(=O)N[C@@H](C(=O)N[C@@H]3C(=O)N4[C@@H]3SC(C)(C)[C@@H]4C(=O)O)c3ccccc3)C(=O)C2)cc1 [compound 9],3.13,3.13,100,< 1.57,3.13
CCCCN1C(=O)CN(C(=O)N[C@@H](C(=O)N[C@@H]2C(=O)N3[C@@H]2SC(C)(C)[C@@H]3C(=O)O)c2ccccc2)CC1C (stereo partly shown) [compound 22],6.25,< 1.57,50,< 1.57,12.5
CC(=O)N1CCN(C(=O)N[C@@H](C(=O)N[C@@H]2C(=O)N3[C@@H]2SC(C)(C)[C@@H]3C(=O)O)c2ccccc2)C(=O)C1C (stereo partly shown) [compound 4],3.13,< 1.57,25,< 1.57,12.5
CC1(C)SC2C(NC(=O)C(NC(=O)N3CCNC(=O)C3=O)c3ccccc3)C(=O)N2C1C(=O)O (stereo not shown) [compound 59],3.13,< 1.57,25,< 1.57,200
CC1(C)S[C@@H]2[C@H](NC(=O)[C@H](NC(=O)N3CCN(S(C)(=O)=O)CC3=O)c3ccccc3)C(=O)N2[C@H]1C(=O)O [compound 5],< 1.57,< 1.57,25,< 1.57,12.5
CCOC(=O)N1CCN(C(=O)N[C@@H](C(=O)N[C@@H]2C(=O)N3[C@@H]2SC(C)(C)[C@@H]3C(=O)O)c2ccccc2)C(=O)C1 [compound 12],12.5,3.13,50,< 1.57,6.25
CC1(C)S[C@@H]2[C@H](NC(=O)[C@H](NC(=O)N3CC(=O)N(Cc4ccccc4)CC3=O)c3ccccc3)C(=O)N2[C@H]1C(=O)O [compound 35],25,6.25,100,1.57,25
"CC1(C)S[C@@H]2[C@H](NC(=O)[C@H](NC(=O)N3CCN(C4CCCC4)C(=O)C3)c3ccccc3)C(=O)N2[C@H]1C(=O)O (single isomer, unassigned) [compound 32]",6.25,< 1.57,12.5,< 1.57,12.5
CCCCN1CC(=O)N(C(=O)N[C@@H](C(=O)N[C@@H]2C(=O)N3[C@@H]2SC(C)(C)[C@@H]3C(=O)O)c2ccccc2)C(C)C1 (stereo partly shown) [compound 15],6.25,3.13,50,< 1.57,6.25
CC1(C)S[C@@H]2[C@H](NC(=O)[C@H](NC(=O)N3CCN(C(=O)C(Cl)Cl)CC3=O)c3ccccc3)C(=O)N2[C@H]1C(=O)O [compound 2],6.25,< 1.57,50,< 1.57,12.5
CCN1CCN(C(=S)NC(C(=O)NC2C(=O)N3C(C(=O)O)=C(COC(C)=O)CSC23)c2ccccc2)C(=O)C1=O (stereo not shown) [compound 67],12.5,< 0.79,100,6.25,3.13
CC1(C)S[C@@H]2[C@H](NC(=O)[C@H](NC(=O)N3CCN(C(=O)Nc4ccccc4)C(=O)C3)c3ccccc3)C(=O)N2[C@H]1C(=O)O [compound 33],3.13,< 1.57,50,< 1.57,6.25
CCCCCCCCN1CCN(C(=O)NC(C(=O)NC2C(=O)N3C2SC(C)(C)C3C(=O)OCCN2CCOCC2)c2ccccc2)C(=O)C1=O (stereo not shown) [compound 56],0.79,< 0.4,12.5,< 0.4,1.57
"CN1CCN(C(=O)NC(C(=O)NC2C(=O)N3C(C(=O)O)=C(CSc4nncn4C)CSC23)c2ccccc2)C(=O)C1=O (single isomer, unassigned) [compound 65]",3.13,0.79,25,3.13,3.13
